Experimental data published in article PMC9705314, “Characterization of a new potent and long-lasting single chain peptide agonist of RXFP1 in cells and in vivo translational models” (Scientific Reports, 2022).
Substitutions are numbered along the chain they refer to. *1 amine or outer side, *2 acyl side, *3 side chain or, on linkers, in order; H or OH if unused. Where a SMILES comes first, the peptide text is derived from it. Side-chain parts run from the residue outwards. [ ]: non-standard residue; d: D form. The star is where a group is joined. γGlu = O=C(O)[C@H](CCC(=O)[*:2])N[*:1]; Stearoyl = CCCCCCCCCCCCCCCCCC(=O)*; Nle = CCCC[C@H](N)C(=O)O; AEEA = NCCOCCOCC(=O)O; Aib = CC(C)(N)C(=O)O

What was measured:
RXFP1 = molecular target: T1, RXFP1 (Homo sapiens, UniProt Q9HBX9); test: Phospho-VASP (Ser157) MSD assay in EA.hy926_RXFP1 cells; assay type: cell-based; set-up: expressed in transfected cells; host or cells: EA.hy926 (ATCC CRL-2922), lentiviral transduction, puromycin selection; settings: serum-free DMEM, 20 min 37 °C, n = 3, read-out: EC50 [CI95%] VASP phosphorylation on S157
T1 sequence (Q9HBX9 1-757): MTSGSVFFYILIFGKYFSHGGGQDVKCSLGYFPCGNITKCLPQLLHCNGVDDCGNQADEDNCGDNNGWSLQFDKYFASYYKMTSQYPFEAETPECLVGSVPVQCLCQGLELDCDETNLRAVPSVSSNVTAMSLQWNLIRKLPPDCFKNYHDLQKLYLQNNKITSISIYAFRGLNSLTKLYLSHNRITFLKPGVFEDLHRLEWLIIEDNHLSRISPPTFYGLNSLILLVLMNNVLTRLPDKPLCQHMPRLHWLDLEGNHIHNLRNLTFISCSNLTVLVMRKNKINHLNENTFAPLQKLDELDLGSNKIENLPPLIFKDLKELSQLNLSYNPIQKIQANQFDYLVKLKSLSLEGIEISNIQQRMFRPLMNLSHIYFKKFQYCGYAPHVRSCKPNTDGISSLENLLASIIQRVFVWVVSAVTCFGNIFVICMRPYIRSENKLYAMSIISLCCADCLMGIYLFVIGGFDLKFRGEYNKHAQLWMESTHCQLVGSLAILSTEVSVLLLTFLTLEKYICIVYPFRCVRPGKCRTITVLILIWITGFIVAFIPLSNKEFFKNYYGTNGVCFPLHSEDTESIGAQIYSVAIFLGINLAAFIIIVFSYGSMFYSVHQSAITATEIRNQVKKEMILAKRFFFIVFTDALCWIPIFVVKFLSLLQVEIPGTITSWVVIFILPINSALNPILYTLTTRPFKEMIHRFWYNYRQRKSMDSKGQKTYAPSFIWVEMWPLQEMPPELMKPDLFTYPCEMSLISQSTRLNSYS
Experimental: These experiments were conducted according to the MSD protocol (K151FFD-2) and using a Sector 2400 from Mesoscale Discovery. In order to reduce the basal phosphorylation activity of VASP protein, EA.hy926_RXFP1 cells were stimulated with effector solutions in basal DMEM (i.e., without serum). Cells were plated in 96-well plate at a density of 35.000 cells/well overnight in a volume of 200µL of cell culture media. Prior to stimulation, growth medium was discarded, and the cells were washed one time with basal DMEM medium, before being incubated for 4 h with basal DMEM medium at 37 °C in 5% CO2. […] For control cells, 50µL of basal DMEM medium without effector standard solution were added onto the cells. The microplates were incubated for 20 min at 37 °C in 5% CO2. All the following steps were carried-out on ice. Medium was aspirated and the cells were directly lysed by addition of 50μL of complete lysis buffer/well (lysis buffer is provided in the pVASP assay kit and prepared according to MSD instructions). The microplates were placed for 60 min under orbital agitation. The cell lysates were collected in round bottom microplate then stored at − 80 °C until pVASP content determination according to MSD protocol.

wild type EA.hy926 cells = test: xCELLigence real time impedance in wild type EA.hy926 cells; assay type: cell-based, human
Experimental: Cell impedance assays in both wild type EA.hy926 and EA.hy926_RXFP1 cell lines were performed using a MP RCTA xCELLigence Analyzer (ACEA Biosciences) on E-Plates. 20,000 cells/well were seeded in E-plates in 200 µL of growth medium and left to settle for 30 min at room temperature. Plates were then placed into the xCELLigence RTCA MP Instrument under 5% CO2 at 37 °C and impedance was continuously measured every 15 min overnight. The next day, a 4-h serum starvation was performed using the same medium but with 0.1% FCS (impedance measurement every 5 min).
Data analysis was performed using RTCA2.0 software according to ACEA recommendations. Raw impedance expressed as cell index was normalized for each well by dividing individual Cell Index values by baseline Cell index values obtained 5 min before peptide treatment in order to obtain Normalized Cell Index (NCI): mean NCI from 4 replicates for each condition are presented.

hRXFP1 (F76V) = molecular target: T2, hRXFP1 (F76V) (Homo sapiens, UniProt Q9HBX9, F76V); test: cAMP production in HEK cells expressing hRXFP1 (F76V); assay type: cell-based; settings: hRXFP1 F76V mutant, n = 4 experiments in duplicate
T2 sequence (Q9HBX9 1-757 F76V): T1 sequence (Q9HBX9 1-757) with F76V
Experimental: HEK cells were stably transduced with lentiviral constructs (Vectalys, MOI 20, batches rV2.1A1.5057 B, rV2.1A1.5056 B and rV2.1A1.5059 B) containing a bicistronic vectors encoding hRXFP1 (S69P) or hRXFP1 (F76V) or hRXFP1 (S69P/F76V) under the EF1 promoter followed by an internal ribosome entry site (IRES) elements to express the neomycin antibiotic resistance gene for selection with 500 μg/mL Geneticin (Invitrogen, #10131-019). Three days post transduction, HEK cells were grown in the presence of Genetecin. Positive individual clones were selected and amplified, and cAMP readout (nM) was used as described for other cell types at a cell density of 8000 cells/well.

EC50 (RXFP1) [nM]	Compound	impedance response (wild type EA.hy926 cells)	cAMP response (efficacy) (hRXFP1 (F76V))
0.19	CCCCCCCCCCCCCCCCCC(=O)N[C@@H](CCC(=O)N[C@@H](CCC(=O)N[C@@H](CCC(=O)NCCOCCOCC(=O)NCCOCCOCC(=O)NCCOCCOCC(=O)NCCCC[C@H](NC(=O)[C@H](CCCCNC(C)=O)NC(=O)[C@H](CCCCN)NC(=O)[C@H](CCCNC(=N)N)NC(=O)C(C)(C)NC(=O)[C@H](CO)NC(=O)[C@H](Cc1c[nH]c2ccccc12)NC(=O)[C@@H](NC(=O)[C@H](CO)NC(=O)[C@H](CCCC)NC(=O)CNC(=O)[C@H](CCC(=O)O)NC(=O)C(C)(C)NC(=O)C(C)(C)NC(=O)[C@@H](NC(=O)[C@H](CCCCNC(C)=O)NC(=O)[C@H](C)NC(=O)[C@H](CCCNC(=N)N)NC(=O)[C@@H](NC(=O)[C@H](CCCCN)NC(=O)[C@H](CCC(=O)O)NC(=O)[C@H](CCCNC(=N)N)NC(=O)CNC(=O)[C@H](CCC(=O)O)NC(=O)[C@H](CC(C)C)NC(C)=O)C(C)C)[C@@H](C)CC)[C@@H](C)O)C(N)=O)C(=O)O)C(=O)O)C(=O)O [SA10SC-RLX] (Ac-LEGREKVRAK(Ac)I[Aib][Aib]EG[Nle]STWS[Aib]RKK(Ac)K([AEEA-AEEA-AEEA-γGlu-γGlu-γGlu-Stearoyl])-NH2)		
	relaxin	Neither relaxin nor SA10SC-RLX induced a response	reduced in all RXFP1 mutants compared to the wild type construct
